Measured values taken from PubChem BioAssay AID1919008 (Molecular Pharmacology Branch, DTP, NCI, 2023).
pIC50: −log10 of the molar value. “And” between values parts separate entries of the source, which are not always exact repeats. Identical values can stand only once.

Tested on: DMS-114 complex spheroids with HUVEC/MSC, growth % test/control
Assay: Anticancer human tumor DMS-114 cell line growth inhibition [AhR];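 also: spheroids exposed to agents for 7 days before readout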;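 as to viability, T/C: 100% = DMSO vehicle control wells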
Settings: for viability, T/C: stronger effect = lower value
Procedure, shortened: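 Spheroids combined tumor cells with HUVEC endothelial cells and human MSCs as stroma. AhR antagonists were paired with standard or investigational drugs, each dosed in half-log steps down from near clinical Cmax, or from 10 microM where Cmax was unknown.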

[1] = curve of first compound, second compound 0.1 µM
[2] = curve of first compound, second compound 0.316 µM
[3] = curve of first compound, second compound 1 µM
[4] = curve of first compound, second compound 3.16 µM
[5] = curve of first compound, second compound 10 µM
[6] = second compound 0.1 µM, first compound 0.0316 µM
[7] = second compound 0.1 µM, first compound 0.1 µM
[8] = second compound 0.1 µM, first compound 0.316 µM
[9] = second compound 0.1 µM, first compound 1 µM
[10] = second compound 0.1 µM, first compound 3.16 µM
[11] = second compound 0.1 µM, first compound 10 µM
[12] = second compound 0.316 µM, first compound 0.0316 µM
[13] = second compound 0.316 µM, first compound 0.1 µM
[14] = second compound 0.316 µM, first compound 0.316 µM
[15] = second compound 0.316 µM, first compound 1 µM
[16] = second compound 0.316 µM, first compound 3.16 µM
[17] = second compound 0.316 µM, first compound 10 µM
[18] = second compound 1 µM, first compound 0.0316 µM
[19] = second compound 1 µM, first compound 0.1 µM
[20] = second compound 1 µM, first compound 0.316 µM
[21] = second compound 1 µM, first compound 1 µM
[22] = second compound 1 µM, first compound 3.16 µM
[23] = second compound 1 µM, first compound 10 µM
[24] = second compound 3.16 µM, first compound 0.0316 µM
[25] = second compound 3.16 µM, first compound 0.1 µM
[26] = second compound 3.16 µM, first compound 0.316 µM
[27] = second compound 3.16 µM, first compound 1 µM
[28] = second compound 3.16 µM, first compound 3.16 µM
[29] = second compound 3.16 µM, first compound 10 µM
[30] = second compound 10 µM, first compound 0.0316 µM
[31] = second compound 10 µM, first compound 0.1 µM
[32] = second compound 10 µM, first compound 0.316 µM
[33] = second compound 10 µM, first compound 1 µM
[34] = second compound 10 µM, first compound 3.16 µM
[35] = second compound 10 µM, first compound 10 µM

## CC1COCCN1c1cc(C2(S(C)(=N)=O)CC2)nc(-c2ccnc3[nH]ccc23)n1 (configuration not stated) + Cc1cncc(-c2nc(NCCc3c[nH]c4ccccc34)c3ncn(C(C)C)c3n2)c1
[1]
  pIC50: 5.21
[2]
  pIC50: 5.29
[3]
  pIC50: 5.23
[4]
  pIC50: 5.32
[5]
  pIC50: 6.03
[6]
  viability, T/C: 98.5%
[7]
  viability, T/C: 96%
[8]
  viability, T/C: 119%
[9]
  viability, T/C: 115%
[10]
  viability, T/C: 81.9%
[11]
  viability, T/C: 26.5%
[12]
  viability, T/C: 105%
[13]
  viability, T/C: 111%
[14]
  viability, T/C: 100%
[15]
  viability, T/C: 99.9%
[16]
  viability, T/C: 64.1%
[17]
  viability, T/C: 31%
[18]
  viability, T/C: 122%
[19]
  viability, T/C: 119%
[20]
  viability, T/C: 114%
[21]
  viability, T/C: 87.7%
[22]
  viability, T/C: 77.3%
[23]
  viability, T/C: 30.2%
[24]
  viability, T/C: 98%
[25]
  viability, T/C: 85.7%
[26]
  viability, T/C: 93.5%
[27]
  viability, T/C: 81.1%
[28]
  viability, T/C: 64.3%
[29]
  viability, T/C: 26%
[30]
  viability, T/C: 53%
[31]
  viability, T/C: 52.3%
[32]
  viability, T/C: 67.7%
[33]
  viability, T/C: 41.7%
[34]
  viability, T/C: 39.8%
[35]
  viability, T/C: 19.3%

## CCc1c2c(nc3ccc(O)cc13)-c1cc3c(c(=O)n1C2)COC(=O)[C@]3(O)CC + CC(CO)NC(=O)c1cc(-c2ccc(Cl)cc2)nn(-c2cnn(C)c2)c1=O
[1]
  pIC50: 8.80
[2]
  pIC50: 8.96
[3]
  pIC50: > 9.02
[4]
  pIC50: > 9.02
[5]
  pIC50: > 9.02
Second compound 0.1 µM, first compound 0.000949 µM
  viability, T/C: 56.4%
Second compound 0.1 µM, first compound 0.003 µM
  viability, T/C: 42.4%
Second compound 0.1 µM, first compound 0.00949 µM
  viability, T/C: 23.2%
Second compound 0.1 µM, first compound 0.03 µM
  viability, T/C: 17.5%
Second compound 0.1 µM, first compound 0.0949 µM
  viability, T/C: 17.7%
Second compound 0.1 µM, first compound 0.3 µM
  viability, T/C: 16.2%
Second compound 0.316 µM, first compound 0.000949 µM
  viability, T/C: 51.4%
Second compound 0.316 µM, first compound 0.003 µM
  viability, T/C: 40.4%
Second compound 0.316 µM, first compound 0.00949 µM
  viability, T/C: 21.2%
Second compound 0.316 µM, first compound 0.03 µM
  viability, T/C: 15.8%
Second compound 0.316 µM, first compound 0.0949 µM
  viability, T/C: 15.7%
Second compound 0.316 µM, first compound 0.3 µM
  viability, T/C: 15.4%
Second compound 1 µM, first compound 0.000949 µM
  viability, T/C: 49.4%
Second compound 1 µM, first compound 0.003 µM
  viability, T/C: 37.8%
Second compound 1 µM, first compound 0.00949 µM
  viability, T/C: 21%
Second compound 1 µM, first compound 0.03 µM
  viability, T/C: 15.4%
Second compound 1 µM, first compound 0.0949 µM
  viability, T/C: 18.8%
Second compound 1 µM, first compound 0.3 µM
  viability, T/C: 17.6%
Second compound 3.16 µM, first compound 0.000949 µM
  viability, T/C: 47.9%
Second compound 3.16 µM, first compound 0.003 µM
  viability, T/C: 31.5%
Second compound 3.16 µM, first compound 0.00949 µM
  viability, T/C: 20.7%
Second compound 3.16 µM, first compound 0.03 µM
  viability, T/C: 13.9%
Second compound 3.16 µM, first compound 0.0949 µM
  viability, T/C: 15.3%
Second compound 3.16 µM, first compound 0.3 µM
  viability, T/C: 16.6%
Second compound 10 µM, first compound 0.000949 µM
  viability, T/C: 43.5%
Second compound 10 µM, first compound 0.003 µM
  viability, T/C: 35.9%
Second compound 10 µM, first compound 0.00949 µM
  viability, T/C: 22.4%
Second compound 10 µM, first compound 0.03 µM
  viability, T/C: 15.1%
Second compound 10 µM, first compound 0.0949 µM
  viability, T/C: 15.7%
Second compound 10 µM, first compound 0.3 µM
  viability, T/C: 16.6%

## Nc1ccn(C2OC(CO)C(O)C2(F)F)c(=O)n1 (configuration not stated) + CC(CO)NC(=O)c1cc(-c2ccc(Cl)cc2)nn(-c2cnn(C)c2)c1=O
[1]
  pIC50: > 7.50
[2]
  pIC50: > 7.50
[3]
  pIC50: > 7.50
[4]
  pIC50: > 7.50
[5]
  pIC50: > 7.50
[6]
  viability, T/C: 12.1%
[7]
  viability, T/C: 11.5%
[8]
  viability, T/C: 11.5%
[9]
  viability, T/C: 11.7%
[10]
  viability, T/C: 11.6%
[11]
  viability, T/C: 10.9%
[12]
  viability, T/C: 11.8%
[13]
  viability, T/C: 11.9%
[14]
  viability, T/C: 13%
[15]
  viability, T/C: 10.9%
[16]
  viability, T/C: 11.6%
[17]
  viability, T/C: 12.8%
[18]
  viability, T/C: 12.6%
[19]
  viability, T/C: 14.1%
[20]
  viability, T/C: 14.4%
[21]
  viability, T/C: 12.3%
[22]
  viability, T/C: 10.6%
[23]
  viability, T/C: 12.6%
[24]
  viability, T/C: 10.6%
[25]
  viability, T/C: 13.3%
[26]
  viability, T/C: 12.9%
[27]
  viability, T/C: 10.6%
[28]
  viability, T/C: 11.2%
[29]
  viability, T/C: 11.1%
[30]
  viability, T/C: 11.6%
[31]
  viability, T/C: 11.8%
[32]
  viability, T/C: 12.7%
[33]
  viability, T/C: 11.3%
[34]
  viability, T/C: 12.7%
[35]
  viability, T/C: 11.9%

## CC[C@@]1(O)C(=O)OCc2c1cc1n(c2=O)Cc2cc3c(CN(C)C)c(O)ccc3nc2-1
Compound 0.000316 µM
  viability, T/C: 101% (2×) and 99%
Compound 0.001 µM
  viability, T/C: 96.5% and 104% and 98.2%
Compound 0.00316 µM
  viability, T/C: 93.2% and 85.7% and 107%
Compound 0.01 µM
  viability, T/C: 79.9% and 87.8% and 95.2%
Compound 0.0316 µM
  viability, T/C: 39.3% and 44.6% and 60.9%
Compound 0.1 µM
  viability, T/C: 19% and 22.2% and 43.2%
Curve of compound
  pIC50: 7.63 and 7.56 and 7.19

## Nc1ccn(C2OC(CO)C(O)C2(F)F)c(=O)n1 (configuration not stated) + Cc1cncc(-c2nc(NCCc3c[nH]c4ccccc34)c3ncn(C(C)C)c3n2)c1
[1]
  pIC50: > 7.50
[2]
  pIC50: > 7.50
[3]
  pIC50: > 7.50
[4]
  pIC50: > 7.50
[5]
  pIC50: > 7.50
[6]
  viability, T/C: 8.56%
[7]
  viability, T/C: 9.8%
[8]
  viability, T/C: 9.67%
[9]
  viability, T/C: 7.95%
[10]
  viability, T/C: 10.1%
[11]
  viability, T/C: 8.44%
[12]
  viability, T/C: 8.17%
[13]
  viability, T/C: 8.73%
[14]
  viability, T/C: 9.32%
[15]
  viability, T/C: 9.26%
[16]
  viability, T/C: 8.71%
[17]
  viability, T/C: 9.3%
[18]
  viability, T/C: 9.4%
[19]
  viability, T/C: 10.1%
[20]
  viability, T/C: 8.34%
[21]
  viability, T/C: 9.34%
[22]
  viability, T/C: 8.86%
[23]
  viability, T/C: 9.03%
[24]
  viability, T/C: 8.74%
[25]
  viability, T/C: 10.6%
[26]
  viability, T/C: 11.1%
[27]
  viability, T/C: 8.92%
[28]
  viability, T/C: 9.63%
[29]
  viability, T/C: 8.89%
[30]
  viability, T/C: 9.18%
[31]
  viability, T/C: 7.73%
[32]
  viability, T/C: 8.82%
[33]
  viability, T/C: 7.58%
[34]
  viability, T/C: 8.49%
[35]
  viability, T/C: 9.08%

## CC(C)c1c(-c2ccccc2)nc2c(C#N)c[nH]n2c1=O + CC(CO)NC(=O)c1cc(-c2ccc(Cl)cc2)nn(-c2cnn(C)c2)c1=O
[1]
  pIC50: < 5.00
[2]
  pIC50: < 5.00
[3]
  pIC50: < 5.00
[4]
  pIC50: < 5.00
[5]
  pIC50: < 5.00
[6]
  viability, T/C: 93.8%
[7]
  viability, T/C: 95.8%
[8]
  viability, T/C: 93.8%
[9]
  viability, T/C: 95.7%
[10]
  viability, T/C: 113%
[11]
  viability, T/C: 108%
[12]
  viability, T/C: 96.8%
[13]
  viability, T/C: 98.5%
[14]
  viability, T/C: 101%
[15]
  viability, T/C: 98.9%
[16]
  viability, T/C: 110%
[17]
  viability, T/C: 113%
[18]
  viability, T/C: 93.7%
[19]
  viability, T/C: 100%
[20]
  viability, T/C: 89.6%
[21]
  viability, T/C: 97.7%
[22]
  viability, T/C: 97.3%
[23]
  viability, T/C: 103%
[24]
  viability, T/C: 103%
[25]
  viability, T/C: 96.6%
[26]
  viability, T/C: 95.1%
[27]
  viability, T/C: 94.6%
[28]
  viability, T/C: 92.3%
[29]
  viability, T/C: 105%
[30]
  viability, T/C: 103%
[31]
  viability, T/C: 105%
[32]
  viability, T/C: 96.1%
[33]
  viability, T/C: 104%
[34]
  viability, T/C: 99.5%
[35]
  viability, T/C: 113%
